Data: patent US10626144B2, “Peptide derivatives and uses thereof” (Nosopharm, priority 2014, dated 2020)
Square brackets hold non-standard residues; d marks the D form. Peptide text beside a SMILES is read from it. Pro(4,4-F2) = O=C(O)[C@@H]1CC(F)(F)CN1; Dab(3S-OH) = NC[C@H](O)[C@H](N)C(=O)O; Met(O2) = CS(=O)(=O)CC[C@H](N)C(=O)O; Lys(iPr) = CC(C)NCCCC[C@H](N)C(=O)O; Met(O) = CS(=O)CC[C@H](N)C(=O)O; ΔZArg = N=C(N)NCC/C=C(\N)C(=O)O; NMeK = CN[C@@H](CCCCN)C(=O)O; dOrn = NCCC[C@@H](N)C(=O)O; hSer = N[C@@H](CCO)C(=O)O; Orn = NCCC[C@H](N)C(=O)O

What was measured:
Assay in all cases: MIC, broth microdilution (CLSI), reference strain
Settings in all cases: CAMHB
[1] = test system: Escherichia coli ATCC 25922
[2] = test system: Acinetobacter baumannii ATCC 19606
[3] = test system: Pseudomonas aeruginosa ATCC 27853
[4] = test system: Staphylococcus aureus ATCC 13709

SMILES	Ec: MIC Escherichia coli ATCC 25922 [1]	Ab: MIC Acinetobacter baumannii ATCC 19606 [2]	Pa: MIC Pseudomonas aeruginosa ATCC 27853 [3]	Sa: MIC Staphylococcus aureus ATCC 13709 [4]
CN[C@@H](CCCCN)C(=O)N[C@H](C(=O)N[C@@H](C)C(=O)NCC(=O)N[C@H](CCCN)C(=O)N1CCC[C@H]1C(=O)N[C@@H](Cc1cnc[nH]1)C(=O)N[C@@H](CCCCN)C(=O)N/C(=C\CCNC(=N)N)C(=O)O)[C@@H](O)CN [24.126] (H-[NMeK][Dab(3S-OH)]AG[dOrn]PHK[ΔZArg]-OH)	+ (≤32 μg/mL)	− (>32 μg/mL)	− (>32 μg/mL)	+ (≤32 μg/mL)
CC(C)NCCCC[C@H](NC(=O)[C@H](Cc1cnc[nH]1)NC(=O)[C@@H]1CCCN1C(=O)[C@@H](CCCN)NC(=O)CNC(=O)[C@H](C)NC(=O)[C@@H](NC(=O)[C@@H](N)CCCCN)[C@@H](O)CN)C(=O)N[C@H](CCCNC(=N)N)C(N)=O [24.127] (H-K[Dab(3S-OH)]AG[dOrn]PH[Lys(iPr)][dR]-NH2)	+ (≤32 μg/mL)	− (>32 μg/mL)	− (>32 μg/mL)	++ (≤8 μg/mL)
C[C@H](NC(=O)[C@@H](NC(=O)[C@@H](N)CCCCN)[C@@H](O)CN)C(=O)NCC(=O)N[C@H](CCCN)C(=O)N1CCC[C@H]1C(=O)N[C@@H](Cc1cnc[nH]1)C(=O)N[C@@H](CCCN)C(=O)N[C@H](CCCNC(=N)N)C(N)=O [24.128] (H-K[Dab(3S-OH)]AG[dOrn]PH[Orn][dR]-NH2)	− (>32 μg/mL)	− (>32 μg/mL)	− (>32 μg/mL)	++ (≤8 μg/mL)
C[C@H](NC(=O)[C@@H](NC(=O)[C@@H](N)CCCCN)[C@@H](O)CN)C(=O)NCC(=O)N[C@H](CCCN)C(=O)N1CCC[C@H]1C(=O)N[C@@H](CCO)C(=O)N[C@@H](CCCCN)C(=O)N/C(=C\CCNC(=N)N)C(=O)O [24.129] (H-K[Dab(3S-OH)]AG[dOrn]P[hSer]K[ΔZArg]-OH)	− (>32 μg/mL)	− (>32 μg/mL)	− (>32 μg/mL)	− (>32 μg/mL)
COCC[C@H](NC(=O)[C@@H]1CCCN1C(=O)[C@@H](CCCN)NC(=O)CNC(=O)[C@H](C)NC(=O)[C@@H](NC(=O)[C@@H](N)CCCCN)[C@@H](O)CN)C(=O)N[C@@H](CCCCN)C(=O)N/C(=C\CCNC(=N)N)C(=O)O [24.130] (H-K[Dab(3S-OH)]AG[dOrn]P[hSer](Me)K[ΔZArg]-OH)	− (>32 μg/mL)	− (>32 μg/mL)	− (>32 μg/mL)	+ (≤32 μg/mL)
CSCC[C@H](NC(=O)[C@@H]1CCCN1C(=O)[C@@H](CCCN)NC(=O)CNC(=O)[C@H](C)NC(=O)[C@@H](NC(=O)[C@@H](N)CCCCN)[C@@H](O)CN)C(=O)N[C@@H](CCCCN)C(=O)N/C(=C\CCNC(=N)N)C(=O)O [24.131] (H-K[Dab(3S-OH)]AG[dOrn]PMK[ΔZArg]-OH)	+ (≤32 μg/mL)	− (>32 μg/mL)	− (>32 μg/mL)	+ (≤32 μg/mL)
C[C@H](NC(=O)[C@@H](NC(=O)[C@@H](N)CCCCN)[C@@H](O)CN)C(=O)NCC(=O)N[C@H](CCCN)C(=O)N1CCC[C@H]1C(=O)N[C@@H](CC[S+](C)[O-])C(=O)N[C@@H](CCCCN)C(=O)N/C(=C\CCNC(=N)N)C(=O)O (stereo partly drawn) [24.132] (H-K[Dab(3S-OH)]AG[dOrn]P[Met(O)]K[ΔZArg]-OH)	− (>32 μg/mL)	− (>32 μg/mL)	− (>32 μg/mL)	− (>32 μg/mL)
C[C@H](NC(=O)[C@@H](NC(=O)[C@@H](N)CCCCN)[C@@H](O)CN)C(=O)NCC(=O)N[C@H](CCCN)C(=O)N1CCC[C@H]1C(=O)N[C@@H](CCS(C)(=O)=O)C(=O)N[C@@H](CCCCN)C(=O)N/C(=C\CCNC(=N)N)C(=O)O [24.133] (H-K[Dab(3S-OH)]AG[dOrn]P[Met(O2)]K[ΔZArg]-OH)	− (>32 μg/mL)	− (>32 μg/mL)	− (>32 μg/mL)	+ (≤32 μg/mL)
C[C@H](NC(=O)[C@@H](NC(=O)[C@@H](N)CCCCN)[C@@H](O)CN)C(=O)NCC(=O)N[C@H](CCCN)C(=O)N1CCC[C@H]1C(=O)N[C@@H](Cc1ccccc1)C(=O)N[C@@H](CCCCN)C(=O)N/C(=C\CCNC(=N)N)C(=O)O [24.134] (H-K[Dab(3S-OH)]AG[dOrn]PFK[ΔZArg]-OH)	+ (≤32 μg/mL)	− (>32 μg/mL)	− (>32 μg/mL)	++ (≤8 μg/mL)
COC[C@H](NC(=O)[C@@H]1CCCN1C(=O)[C@@H](CCCN)NC(=O)CNC(=O)[C@H](C)NC(=O)[C@@H](NC(=O)[C@@H](N)CCCCN)[C@@H](O)CN)C(=O)N[C@@H](CCCCN)C(=O)N/C(=C\CCNC(=N)N)C(=O)O [24.136] (H-K[Dab(3S-OH)]AG[dOrn]PS(Me)K[ΔZArg]-OH)	− (>32 μg/mL)	− (>32 μg/mL)	− (>32 μg/mL)	− (>32 μg/mL)
C[C@H](NC(=O)[C@@H](NC(=O)[C@@H](N)CCCCN)[C@@H](O)CN)C(=O)NCC(=O)N[C@H](CCCN)C(=O)N1CCC[C@H]1C(=O)N[C@H](C(=O)N[C@@H](CCCCN)C(=O)N/C(=C\CCNC(=N)N)C(=O)O)[C@@H](C)O [24.137] (H-K[Dab(3S-OH)]AG[dOrn]PTK[ΔZArg]-OH)	− (>32 μg/mL)	− (>32 μg/mL)	− (>32 μg/mL)	+ (≤32 μg/mL)
C[C@H](NC(=O)[C@@H](NC(=O)[C@@H](N)CCCCN)[C@@H](O)CN)C(=O)NCC(=O)N[C@H](CCCN)C(=O)N1CC(F)(F)C[C@H]1C(=O)N[C@@H](Cc1cnc[nH]1)C(=O)N[C@@H](CCCCN)C(=O)N/C(=C\CCNC(=N)N)C(=O)O [24.141] (H-K[Dab(3S-OH)]AG[dOrn][Pro(4,4-F2)]HK[ΔZArg]-OH)	− (>32 μg/mL)	− (>32 μg/mL)	− (>32 μg/mL)	++ (≤8 μg/mL)
